One substance from patent US11135181B2, “Treatment for depression and depressive disorders” (Medlab IP Pty Ltd, priority 2014, dated 2021) can be followed below.

What all share (assay type): in vivo, human
The test system of experiment [1] is subjects diagnosed with depression. In words: Beck Depression Inventory (BDI) in subjects with treatment-resistant depression. An excerpt:
BDI is a 21-item self-report inventory that is widely used to assess depression. It has high internal constancy and correlates highly with other self-report measures of depression (α=0.60−0.90).
(§1) The study received ethical approval from the Medical Research Ethics Committee (MREC) University of Queensland, Australia, within the guidelines of the National Statement on Ethical Conduct in Human Research. All participants provided written informed consent for the study.
The subjects were selected for inclusion in the study as follows. At the completion of a 15 week study investigating SAMe treatment of depression, suboptimal treatment responders (n=8) were inducted into the present orotate study after a 2 week wash out period. Sub-optimal treatment responders were defined as those still experiencing clinical depression by the SAMe study endpoint, which consisted of six participants with major depression and two with moderate depression. The subjects comprised six females between 33 to 70 years of age (mean age of 53 years) and two males between 48-54 years of age (mean age of 51 years). The orotate study was conducted as a single group study for 8 weeks (mean time for SAMe responders) with a focus was on efficacy. […]
(§2) Depression was monitored in the treated subjects over the eight week course using a variety of well known methodologies: the Beck Depression Inventory (BDI); the Depression and Anxiety Stress Scale (DASS); Outcome Questionnaire-45 (OQ45); the Warwick-Edinburgh Mental Well-Being Scale (WBS); and a Quality of Life (QoL score).
(§3) Three subjects were administered a probiotic supplement containing magnesium orotate for eight weeks, and measures of depression (BDI and OQ45) assessed. […]
(§4) BDI and OQ45 were assessed for each subject as described in Example 1, at the beginning of the study prior to the initiation of treatment and again at the completion of eight weeks of combined magnesium orotate plus probiotic administration. […]

Experiment [2] shares this test system. In words: Clinical depression status at study endpoint. The note with it: 8 weeks, 1600 mg per day.
Excerpt: as §1
(§5) The subjects were selected for inclusion in the study as follows. At the completion of a 15 week study investigating SAMe treatment of depression, suboptimal treatment responders (n=8) were inducted into the present orotate study after a 2 week wash out period. Sub-optimal treatment responders were defined as those still experiencing clinical depression by the SAMe study endpoint, which consisted of six participants with major depression and two with moderate depression. The subjects comprised six females between 33 to 70 years of age (mean age of 53 years) and two males between 48-54 years of age (mean age of 51 years). The orotate study was conducted as a single group study for 8 weeks (mean time for SAMe responders) with a focus was on efficacy.
(§6) Inclusion criteria also required a primary diagnosis of major depression that has a verifiable history of being treatment resistant, current medication type being SSRIs (for standardisation purposes), and at least 18 years of age with no upper age limit. Participants were also asked not to take any nutritional supplements such as B group vitamins or other supplements that have antidepressant effects (a list was provided to participants).
The magnesium orotate was administered in capsule form, each capsule comprising 400 mg magnesium orotate. The daily dose of 1600 mg magnesium orotate was provided as two capsules taken in the morning and two capsules taken at night.

For experiment [3] the test system is unchanged. In words: Depression and Anxiety Stress Scale (DASS) in subjects with treatment-resistant depression.
Excerpt: The DASS short form is a 21 item self-report scale designed to measure depression and anxiety and was used here as a secondary self-report assessment. The DASS has high internal consistency and yields meaningful discriminations in a variety of settings (α=0.88-0.96).
as §1, §5
Inclusion criteria also required a primary diagnosis of major depression that has a verifiable history of being treatment resistant, current medication type being SSRIs (for standardisation purposes), and at least 18 years of age with no upper age limit. Participants were also asked not to take any nutritional supplements such as B group vitamins or other supplements that have antidepressant effects (a list was provided to participants). […]
as §2

The test system is the same in experiment [4]. In words: Outcome Questionnaire-45 (OQ45) in subjects with treatment-resistant depression. Conditions: n=8.
Excerpt: OQ45 is a self-report symptom and distress inventory designed as an independent measure of symptom distress and functioning to assess the response to intervention at regular intervals such as on a weekly bases (α=0.93, & κ>0.83). The OQ45 consists of 45 items with a five point scale. A high total score […] indicates a high level of symptom distress (anxiety, depression, and somatic, work and social role problems). Lower scores indicate less severity of problems. Average community non-clinical scores cut off (CO) occur at about >63, and changes of 14 points in either direction are typically considered clinically significant change and are reliable. […]
as §2, §3, §4

Experiment [5] shares this test system. In words: Quality of Life (QoL) score in subjects with treatment-resistant depression.
Excerpt: QoL has 16 items and evaluates perceived satisfaction with life over a number of domains (α=0.85). QoL typically provides an important evaluation of perception of life circumstances and stressors.
as §1, §5, §6
The magnesium orotate was administered in capsule form, each capsule comprising 400 mg magnesium orotate. […]
as §2

Experiment [6] has the same test system. In words: Warwick-Edinburgh Mental Well-Being Scale (WBS) in subjects with treatment-resistant depression.
Excerpt: WBS has 14 items and assesses feelings and thoughts associated with mood (α=0.91) with higher scores indicate better mood. It has a different factor structure to the BDI and DASS and was used in this study as a measure of mood improvement.
as §1
The subjects were selected for inclusion in the study as follows. At the completion of a 15 week study investigating SAMe treatment of depression, suboptimal treatment responders (n=8) were inducted into the present orotate study after a 2 week wash out period. Sub-optimal treatment responders were defined as those still experiencing clinical depression by the SAMe study endpoint, which consisted of six participants with major depression and two with moderate depression. […]
as §2

Where [7] appears, read: after 8 weeks of 1600 mg per day oral capsules, n=8.

As to magnesium orotate, the “BDI change score (mean, pre- versus post treatment)” value in experiment [1] (8 weeks, 1600 mg per day, p=0.021) is 19. Also, the “BDI mean score, Post-Treatment” value in experiment [1] (setting [7]) stood at 14.1. The “BDI mean score, Pre-Treatment” value in experiment [1] (baseline before treatment, n=8 SAMe suboptimal responders on SSRIs) turned out to be 33.8. Further, in experiment [2], the “share of the group in clinical remission by the endpoint” value is 50%, the “share of the group mildly depressed” value is reported as 10%, the “share of the group that remained moderately depressed” value is reported as 30% and the “share of the group without any clinical change” value is recorded as 10%. In addition, in experiment [3] (setting [7]), the “DASS mean score, Post-Treatment” value amounted to 25.2. In experiment [3] (baseline before treatment, n=8), the “DASS mean score, Pre-Treatment” value is 44.7. In addition, in experiment [3] (baseline minus week 8, 1600 mg per day, Sig. (2-tailed) .032), the “DASS paired difference, mean (DASS-DASS8)” value amounted to 19.5. In addition, the “OQ45 mean score, Post-Treatment” value in experiment [4] (after 8 weeks of 1600 mg per day oral capsules) amounted to 54.2. Also, the “OQ45 mean score, Pre-Treatment” value in experiment [4] (baseline before treatment) is listed as 86.6. Also, the “QoL mean score, Post-Treatment” value in experiment [5] (setting [7]) amounted to 76.0. In experiment [5] (baseline before treatment, n=8), the “QoL mean score, Pre-Treatment” value was found to be 55.2. The “QoL paired difference, mean (QoL-QoL8)” value in experiment [5] (baseline minus week 8, 1600 mg per day, Sig. (2-tailed) .027) is reported as −20.75. Further, in experiment [6] (baseline before treatment, n=8, higher score = better mood), the “WBS mean score, Pre-Treatment” value was determined as 34.6. For the same substance, the “WBS paired difference, mean (MWBS-WMBS8)” value in experiment [6] (baseline minus week 8, 1600 mg per day, Sig. (2-tailed) .025) was −11.
